Experimental findings from patent US9562034B2, “Endoparasite control agent” (The University of Tokyo, priority 2012, dated 2017) are described below.

Read-outs that look alike come from different tables or passages of the source.

Assay [1] addresses T1, Ascaris suum succinate-ubiquinone reductase (mitochondrial complex II) (Ascaris suum, UniProt O44074+P92506+P92507).
T1 construct: from tissue; host or cells: mitochondria from adult Ascaris suum muscle
Kind of assay: In vitro inhibitory activity on Ascaris suum succinate-ubiquinone reductase (mitochondrial complex II). Format: biochemical. Here is the method: In Vitro Measurement of Inhibitory Activity on Ascaris suum Succinate-Ubiquinone Reductase (Mitochondrial Complex II)
To a solution containing 50 mM potassium phosphate (pH 7.4) and 0.1% (w/v) sucrose monolaurate, an electron acceptor ubiquinone-2 (UQ2) was added at a final concentration of 60 μM, and the mixture was allowed to stand at 25° C. for 20 minutes. To this, potassium cyanide (final concentration: 2 mM) and mitochondria prepared from adult Ascaris suum muscle were added, and thorough mixing was done. To aliquots of the mixture, an inhibitor to be tested was added at various concentrations, and the mixtures were allowed to stand at 25° C. for 3 minutes. The enzymatic reaction was initiated by addition of potassium succinate (final concentration: 10 mM).

In assay [2] the test system is Haemonchus contortus L1-stage larvae. Kind of assay: In vivo activity test on Haemonchus nematode (motor ability of L1-stage larvae, 96-well plate). The conditions noted are these: twenty L1-stage larvae per well, 27° C./95% RH for 4 days, DMSO 0.78% (v/v). As for the experimental part: In Vivo Activity Test on Haemonchus Nematode
In a 96-well plate, twenty L1-stage larvae (Haemonchus contortus) per well were maintained so that they could freely move, and solutions of compounds of the present invention dissolved at predetermined concentrations in DMSO (the final concentration of DMSO was 0.78% (v/v)) were added at 0.5 μl/well each. The plate was kept under the conditions of 27° C./95% RH for 4 days. The motor ability of the larvae was examined and the concentration required for 50% inhibition of the motor ability (EC50) was determined. Based on the EC50 value, the activity against the Haemonchus nematode was graded according to the criterion shown below.
• A: The EC50 value is lower than 0.5 ppm. • B: The EC50 value is 0.5 ppm or higher but lower than 5 ppm. • C: The EC50 value is 5 ppm or higher.

Where [3] appears, read: mitochondria from adult Ascaris suum muscle, UQ2 60 μM, potassium succinate 10 mM, 25° C., absorbance at 278 nm, read-out: Ascaris suum IC50 value (A).

T1 sequence (O44074 22-282): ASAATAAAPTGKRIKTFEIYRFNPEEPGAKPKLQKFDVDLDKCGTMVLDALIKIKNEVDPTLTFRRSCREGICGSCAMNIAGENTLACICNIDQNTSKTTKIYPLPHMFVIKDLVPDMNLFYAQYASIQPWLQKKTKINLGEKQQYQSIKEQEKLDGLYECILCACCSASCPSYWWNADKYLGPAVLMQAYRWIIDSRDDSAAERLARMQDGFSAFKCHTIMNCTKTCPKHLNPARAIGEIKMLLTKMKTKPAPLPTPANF
T1 sequence (P92506 32-188): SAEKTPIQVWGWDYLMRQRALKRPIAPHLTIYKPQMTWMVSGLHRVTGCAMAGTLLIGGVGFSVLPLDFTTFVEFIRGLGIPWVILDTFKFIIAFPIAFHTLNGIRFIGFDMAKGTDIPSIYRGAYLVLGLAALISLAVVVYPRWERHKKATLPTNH
T1 sequence (P92507 26-156): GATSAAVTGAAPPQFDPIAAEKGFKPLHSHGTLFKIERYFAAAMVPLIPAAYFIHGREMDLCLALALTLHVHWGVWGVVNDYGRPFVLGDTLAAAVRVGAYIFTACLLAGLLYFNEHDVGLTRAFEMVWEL
T1 sequence (Q33862 19-645 partner): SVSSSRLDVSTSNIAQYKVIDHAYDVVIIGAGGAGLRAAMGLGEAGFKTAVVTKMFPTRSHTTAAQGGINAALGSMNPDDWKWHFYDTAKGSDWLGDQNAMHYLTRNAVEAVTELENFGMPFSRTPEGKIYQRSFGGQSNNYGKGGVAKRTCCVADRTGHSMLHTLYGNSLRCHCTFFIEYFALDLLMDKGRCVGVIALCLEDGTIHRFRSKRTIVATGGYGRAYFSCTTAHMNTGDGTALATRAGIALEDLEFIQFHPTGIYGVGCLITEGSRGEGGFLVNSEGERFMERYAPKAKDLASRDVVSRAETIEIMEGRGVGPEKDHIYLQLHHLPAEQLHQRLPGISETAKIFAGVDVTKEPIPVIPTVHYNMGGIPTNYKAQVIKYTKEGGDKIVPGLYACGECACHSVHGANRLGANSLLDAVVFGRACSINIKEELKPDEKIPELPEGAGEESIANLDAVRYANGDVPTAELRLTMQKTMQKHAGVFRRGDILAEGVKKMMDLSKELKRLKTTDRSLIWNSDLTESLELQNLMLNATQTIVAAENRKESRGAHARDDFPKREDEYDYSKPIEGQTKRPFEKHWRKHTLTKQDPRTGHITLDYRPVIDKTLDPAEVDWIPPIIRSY

What is called IC50 is the midpoint of a concentration-inhibition curve. Turning to `Cc1nccnc1C(=O)NCCc1ccc(-c2ccc(OC(F)(F)F)cc2)cc1` [Compound 5], the half-maximal inhibitory concentration (IC50) in assay [1] (setting [3]) was 26 nM.

On to `O=C(NCCc1ccc(Oc2ncc(C(F)(F)F)cc2Cl)cc1Cl)c1nccnc1C(F)(F)F` [Compound 21], for which the concentration for half-maximal inhibition (IC50) in assay [1] (setting [3]) turned out to be 1.3 nM. Further, in assay [2], the “Grade (EC50, concentration required for 50% inhibition of the motor ability)” value is “A (The EC50 value is lower than 0.5 ppm.)”.

With `O=C(NCCc1ncc(C(F)(F)F)cc1Cl)c1cccnc1Cl` [Compound 1], the IC50 in assay [1] (setting [3]) was 47 nM. Moreover, the “Grade (EC50, concentration required for 50% inhibition of the motor ability)” value in assay [2] is “A (The EC50 value is lower than 0.5 ppm.)”.

In turn, `O=C(NCCc1ccc(-c2ccc(OC(F)(F)F)cc2)cc1F)c1nccnc1Cl` [Compound 17] came in with an IC50 in assay [1] of 2 nM. Besides, the “Grade (EC50, concentration required for 50% inhibition of the motor ability)” value in assay [2] is given as “A (The EC50 value is lower than 0.5 ppm.)”.

On to `O=C(NCCc1ccc(Cl)cc1Cl)c1cnccc1C(F)(F)F` [Compound 31], for which the IC50 in assay [1] (setting [3]) came to 42 nM.

`O=C(NCCc1ccc(-c2ccc(OC(F)(F)F)cc2)cc1Cl)c1nccnc1C(F)(F)F` [Compound 4]: the IC50 in assay [1] (setting [3]) stood at 1.3 nM.

Turning to `O=C(NCCc1cc(F)c(Cl)cc1Cl)c1cccnc1Cl` [Compound 29], in assay [1] (setting [3]), the IC50 was 6.7 nM.

With `O=C(NCCc1ncc(C(F)(F)F)cc1Cl)c1nccnc1C(F)(F)F` [Compound 3], in assay [1] (setting [3]), the concentration for half-maximal inhibition (IC50) was found to be 9.4 nM. Also, the “Grade (EC50, concentration required for 50% inhibition of the motor ability)” value in assay [2] was “A (The EC50 value is lower than 0.5 ppm.)”.

Consider `C[C@@H](Cn1nc(Br)c(Br)c1Br)NC(=O)c1cccnc1Cl` [Compound 41], for which, in assay [1] (setting [3]), the concentration for half-maximal inhibition (IC50) was determined as 42 nM.

As for `Cc1cccnc1C(=O)NCCc1ccc(Cl)cc1Cl` [Compound 30], the IC50 in assay [1] (setting [3]) worked out at 6 nM.

Consider `O=C(NCCc1ccc(Oc2ncc(C(F)(F)F)cc2Cl)cc1Cl)c1cccnc1Cl` [Compound 22], for which, in assay [1] (setting [3]), the IC50 came to 1.7 nM. Further, in assay [2], the “Grade (EC50, concentration required for 50% inhibition of the motor ability)” value is reported as “A (The EC50 value is lower than 0.5 ppm.)”.

As to `O=C(NCCc1cc(F)c(Cl)cc1F)c1cccnc1Cl` [Compound 25], in assay [1] (setting [3]), the IC50 is 18 nM. For the same compound, the “Grade (EC50, concentration required for 50% inhibition of the motor ability)” value in assay [2] is recorded as “A (The EC50 value is lower than 0.5 ppm.)”.

On to `O=C(NCCc1cc(F)c(F)cc1Cl)c1nccnc1C(F)(F)F` [Compound 27], for which the IC50 in assay [1] (setting [3]) amounted to 2.2 nM.

As to `C[C@@H](COc1ncc(C(F)(F)F)cc1Cl)NC(=O)c1cccnc1Cl` [Compound 44], the IC50 in assay [1] (setting [3]) turned out to be 20 nM.

Take `Cc1nccnc1C(=O)NCCc1ccc(-c2ccc(OC(F)(F)F)cc2)cc1` [Compound 48]: in assay [2], the “Grade (EC50, concentration required for 50% inhibition of the motor ability)” value is reported as “A (The EC50 value is lower than 0.5 ppm.)”.

Consider `O=C(NCC1(c2ccc(Cl)cc2Cl)CC1)c1nccnc1Cl` [Compound 13], for which the IC50 in assay [1] (setting [3]) was determined as 2.7 nM. Also, the “Grade (EC50, concentration required for 50% inhibition of the motor ability)” value in assay [2] is “A (The EC50 value is lower than 0.5 ppm.)”.

For `Nc1nc(C(F)(F)F)c(C(=O)NCCc2ccc(Cl)cc2Cl)s1` [Compound 2], in assay [1] (setting [3]), the IC50 was found to be 57 nM.

With `Cc1c(C(=O)NCCc2ccc(Cl)cc2Cl)c(C(F)(F)F)nn1C` [Compound 35], the “Grade (EC50, concentration required for 50% inhibition of the motor ability)” value in assay [2] is “B (The EC50 value is 0.5 ppm or higher but lower than 5 ppm.)”.

For `C[C@@H](Cn1nc(Br)c(Br)c1Br)NC(=O)c1cccnc1C(F)(F)F` [Compound 42], the IC50 in assay [1] (setting [3]) was found to be 13 nM.

In the case of `C[C@@H](Cn1nc(C(F)(F)F)c(Cl)c1Cl)NC(=O)c1nccnc1C(F)(F)F` [Compound 43], in assay [1] (setting [3]), the IC50 is 9.9 nM.

On to `CC(Cc1ccc(Cl)cc1Cl)NC(=O)c1nccnc1C(F)(F)F` (stereo not drawn) [Compound 15], for which the “Grade (EC50, concentration required for 50% inhibition of the motor ability)” value in assay [2] is reported as “A (The EC50 value is lower than 0.5 ppm.)”.

Regarding `Cc1nc(C(F)(F)F)c(C(=O)NCCc2ccc(Cl)cc2Cl)s1` [Compound 38], in assay [2], the “Grade (EC50, concentration required for 50% inhibition of the motor ability)” value is “B (The EC50 value is 0.5 ppm or higher but lower than 5 ppm.)”.

Regarding `CC(Cc1cc(F)c(F)cc1Cl)NC(=O)c1nccnc1C(F)(F)F` (stereo not drawn) [Compound 26], in assay [1] (setting [3]), the IC50 was found to be 2.9 nM.

In the case of `O=C(NCCc1cc(F)c(Cl)cc1F)c1nccnc1C(F)(F)F` [Compound 24], the IC50 in assay [1] (setting [3]) came out at 2 nM. Further, the “Grade (EC50, concentration required for 50% inhibition of the motor ability)” value in assay [2] is reported as “A (The EC50 value is lower than 0.5 ppm.)”.

`O=C(NCCc1ccc(Cl)cc1Cl)c1cccnc1C(F)(F)F` [Compound 6]: the IC50 in assay [1] (setting [3]) was found to be 4.4 nM. For the same compound, the “Grade (EC50, concentration required for 50% inhibition of the motor ability)” value in assay [2] was “A (The EC50 value is lower than 0.5 ppm.)”.

With `CC(Cc1ccc(Cl)cc1Cl)NC(=O)c1nccnc1Cl` (stereo not drawn) [Compound 14], the concentration for half-maximal inhibition (IC50) in assay [1] (setting [3]) was determined as 3.3 nM.

Take `CC(Cc1ccc(Cl)cc1F)NC(=O)c1nccnc1Cl` (stereo not drawn) [Compound 23]: the IC50 in assay [1] (setting [3]) was determined as 10 nM. Further, in assay [2], the “Grade (EC50, concentration required for 50% inhibition of the motor ability)” value is recorded as “A (The EC50 value is lower than 0.5 ppm.)”.

As to `O=C(NCCc1ccc(Cl)cc1Cl)c1sccc1C(F)(F)F` [Compound 7], in assay [1] (setting [3]), the IC50 came to 1.1 nM. For the same compound, the “Grade (EC50, concentration required for 50% inhibition of the motor ability)” value in assay [2] is recorded as “A (The EC50 value is lower than 0.5 ppm.)”.

Take `O=C(NCCc1ccc(Cl)cc1Cl)c1nccnc1C(F)(F)F` [Compound 9]: the “Grade (EC50, concentration required for 50% inhibition of the motor ability)” value in assay [2] is on record as “A (The EC50 value is lower than 0.5 ppm.)”.

Compound `CC(Cc1ccc(Cl)cc1Cl)NC(=O)c1nccnc1I` (stereo not drawn) [Compound 47] had an IC50 in assay [1] of 2.3 nM.

Consider `Cc1occc1C(=O)NCCc1ccc(Cl)cc1Cl` [Compound 50], for which the IC50 in assay [1] (setting [3]) came to 1.6 nM.

On to `O=C(NCCc1ccc(Oc2ccc(C(F)(F)F)cn2)cc1Cl)c1cccnc1Cl` [Compound 45], for which, in assay [1] (setting [3]), the IC50 came to 4.5 nM.

Turning to `O=C(NCCc1ccc(F)cc1Cl)c1nccnc1C(F)(F)F` [Compound 11], in assay [1] (setting [3]), the IC50 worked out at 3.4 nM.

In assay [1], `O=C(NCCc1ccc(Cl)cc1Cl)C1=C(C(F)(F)F)OCCS1` [Compound 33] came in with an IC50 of 7.3 nM. In addition, in assay [2], the “Grade (EC50, concentration required for 50% inhibition of the motor ability)” value is “A (The EC50 value is lower than 0.5 ppm.)”.

For `O=C(NCC1(c2ccc(Cl)cc2Cl)CC1)c1nccnc1C(F)(F)F` [Compound 16], the IC50 in assay [1] (setting [3]) turned out to be 1.5 nM. Further, in assay [2], the “Grade (EC50, concentration required for 50% inhibition of the motor ability)” value is given as “A (The EC50 value is lower than 0.5 ppm.)”.

In the case of `O=C(NC1(Cc2ccc(Cl)cc2Cl)CC1)c1nccnc1C(F)(F)F` [Compound 18], the IC50 in assay [1] (setting [3]) was found to be 3.1 nM.

On to `O=C(NCCc1ccc(C(F)(F)F)cc1Cl)c1nccnc1C(F)(F)F` [Compound 19], for which the IC50 in assay [1] (setting [3]) amounted to 1.3 nM. Besides, the “Grade (EC50, concentration required for 50% inhibition of the motor ability)” value in assay [2] is given as “A (The EC50 value is lower than 0.5 ppm.)”.

In the case of `O=C(NCCc1ccc(Cl)cc1F)c1nccnc1C(F)(F)F` [Compound 20], in assay [1] (setting [3]), the IC50 came to 4.9 nM.

Consider `O=C(NCCc1cc(F)c(Cl)cc1Cl)c1nccnc1C(F)(F)F` [Compound 28], for which the 50% inhibitory concentration (IC50) in assay [1] (setting [3]) stood at 1.3 nM. Also, the “Grade (EC50, concentration required for 50% inhibition of the motor ability)” value in assay [2] is “A (The EC50 value is lower than 0.5 ppm.)”.
